From US11014911B2, “CDK2 inhibitors” (Pfizer Inc., priority 2019, dated 2021)
pKi: −log10 of the molar value. Like-named read-outs stand apart in the source and are kept apart here.

Legend:
[1] = target: CDK2/Cyclin E1 full length (Homo sapiens (Human), UniProt P24941); assay: CDK2/Cyclin E1 full length mobility shift assay; format: biochemical
[2] = target: T1, GSK3β (H350L) (Homo sapiens (Human), UniProt P49841); assay: biochemical; settings: GSK3β Ki (nM)
Protocol: (§1) The assay was initiated with the addition of ATP, following 15 minutes pre-incubation of enzyme and inhibitor at room temperature in the reaction mixture. The reaction was stopped after 30 minutes at room temperature by the addition of 50 μL of 80 mM EDTA.

[3] = target: T1, GSK3β (H350L); settings: read-out: GSK3β Ki
Protocol: as §1

T1 sequence (P49841 whole entry, stated change not applied): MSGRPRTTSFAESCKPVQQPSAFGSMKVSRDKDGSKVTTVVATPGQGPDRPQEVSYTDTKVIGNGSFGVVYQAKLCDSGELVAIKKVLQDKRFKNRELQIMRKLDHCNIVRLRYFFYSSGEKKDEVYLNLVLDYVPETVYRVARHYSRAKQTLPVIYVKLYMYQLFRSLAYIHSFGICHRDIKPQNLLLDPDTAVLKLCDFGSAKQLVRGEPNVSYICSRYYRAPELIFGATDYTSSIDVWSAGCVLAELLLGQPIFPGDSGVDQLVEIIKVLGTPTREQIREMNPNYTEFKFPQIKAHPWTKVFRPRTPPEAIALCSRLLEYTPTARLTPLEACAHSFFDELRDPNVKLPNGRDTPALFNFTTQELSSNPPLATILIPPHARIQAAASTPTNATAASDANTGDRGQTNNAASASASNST

SMILES | pKi [1] | Ki [2] [nM] | pKi [3]
Cc1ncc(CC(=O)Nc2cc([C@H]3CC[C@@H](OC(=O)NC4(C)CCOC4)C3)[nH]n2)s1 (single isomer, unassigned) [Example 481] | 9.28 | 44.6 | –
COc1cc(CC(=O)Nc2cc([C@H]3CC[C@@H](OC(=O)NC(C)C(C)(F)F)C3)[nH]n2)ccn1 (single isomer, unassigned) [Example 393] | 9.01 | 34 | –
Cc1ncc(CC(=O)Nc2cc([C@H]3CC[C@@H](OC(=O)NC(C)C(C)(F)F)C3)[nH]n2)s1 (single isomer, unassigned) [Example 391] | 8.86 | 38 | –
CCC(CO)CNC(=O)O[C@@H]1CC[C@H](c2cc(NC(=O)Cc3ccnc(OC)c3)n[nH]2)C1 (single isomer, unassigned) [Example 534] | 9.07 | 4.63 | –
Cc1ncc(CC(=O)Nc2cc([C@H]3CC[C@@H](OC(=O)N4C[C@@H](C#N)[C@@H]4C)C3)[nH]n2)s1 (single isomer, unassigned) [Example 160] | 9.82 | 1.72 | –
CC[C@H](C)NC(=O)O[C@@H]1CC[C@H](c2cc(NC(=O)Cc3ccno3)n[nH]2)C1 [Example 16, (1R,3S)-3-{3-[(1,2-oxazol-5-ylacetyl)amino]-1H-pyrazol-5-yl}cyclopentyl (2S)-butan-2-ylcarbamate] | 9.43 | 51.7 | –
COc1ccc(CC(=O)Nc2cc([C@H]3CC[C@@H](OC(=O)N4C[C@@H](C#N)[C@@H]4C)C3)[nH]n2)cn1 (single isomer, unassigned) [Example 158] | 9.77 | 0.78 | –
CCC(NC(=O)O[C@@H]1CC[C@H](c2cc(NC(=O)Cc3ccnc(OC)c3)n[nH]2)C1)C(F)(F)F (single isomer, unassigned) [Example 405] | 8.86 | 97.9 | –
CCCNC(=O)O[C@@H]1CC[C@H](c2cc(NC(=O)Cc3cc(OC)ccc3S(C)(=O)=O)n[nH]2)C1 [Example 213, (1R,3S)-3-[3-({[5-methoxy-2-(methylsulfonyl)phenyl]acetyl}amino)-1H-pyrazol-5-yl]cyclopentyl propylcarbamate] | 9.49 | – | 6.74
CC[C@H](C)NC(=O)O[C@@H]1CC[C@H](c2cc(NC(=O)Cc3cnc(C(F)(F)F)cn3)n[nH]2)C1 [Example 363, (1R,3S)-3-[3-({[5-(trifluoromethyl)pyrazin-2-yl]acetyl}amino)-1H-pyrazol-5-yl]cyclopentyl (2S)-butan-2-ylcarbamate] | 9.46 | – | 7.28
COc1cccc(CC(=O)Nc2cc([C@H]3CC[C@@H](OC(=O)NC4(C)CC4)C3)[nH]n2)n1 [Example 434, (1R,3S)-3-(3-{[(6-methoxypyridin-2-yl)acetyl]amino}-1H-pyrazol-5-yl)cyclopentyl (1-methylcyclopropyl)carbamate] | 9.32 | – | 7.40
CC[C@H](C)NC(=O)O[C@@H]1CC[C@H](c2cc(NC(=O)Cc3nc(C)cs3)n[nH]2)C1 [Example 343, (1R,3S)-3-(3-{[(4-methyl-1,3-thiazol-2-yl)acetyl]amino}-1H-pyrazol-5-yl)cyclopentyl (2S)-butan-2-ylcarbamate] | 9.11 | – | 7.58
CC[C@H](C)NC(=O)O[C@H]1CC[C@@H](c2cc(NC(=O)c3cnnn3C)n[nH]2)C1 [Example 31] | 9.80 | – | 7.35
CCNC(=O)O[C@@H]1CC[C@H](c2cc(NC(=O)Cc3ccno3)n[nH]2)C1 [Example 226, (1R,3S)-3-{3-[(1,2-oxazol-5-ylacetyl)amino]-1H-pyrazol-5-yl}cyclopentyl ethylcarbamate] | 8.43 | – | 6.88
CC[C@H](C)NC(=O)O[C@@H]1CC[C@H](c2cc(NC(=O)c3cnnn3C)n[nH]2)C1 [Example 4, (1R,3S)-3-(3-{[(1-methyl-1H-1,2,3-triazol-5-yl)carbonyl]amino}-1H-pyrazol-5-yl)cyclopentyl (2S)-butan-2-ylcarbamate] | 10.00 | – | 6.96
CC[C@H](C)NC(=O)O[C@@H]1CC[C@H](c2cc(NC(=O)Cc3ccon3)n[nH]2)C1 [Example 323, (1R,3S)-3-{3-[(1,2-oxazol-3-ylacetyl)amino]-1H-pyrazol-5-yl}cyclopentyl (2S)-butan-2-ylcarbamate] | 8.97 | – | 7.13
CC[C@H](C)NC(=O)O[C@@H]1CC[C@H](c2cc(NC(=O)Cc3ccnc(C)c3)n[nH]2)C1 [Example 335, (1R,3S)-3-(3-{[(2-methylpyridin-4-yl)acetyl]amino}-1H-pyrazol-5-yl)cyclopentyl (2S)-butan-2-ylcarbamate] | 9.39 | – | 7.62

Further lines, results first:

pKi [1] | Ki [2] [nM] | pKi [3] | SMILES
9.64 | 20.1 | – | COc1ncc(CC(=O)Nc2cc([C@H]3CC[C@@H](OC(=O)NC4(C)CCOC4)C3)[nH]n2)s1 (single isomer, unassigned) [Example 127]
10.10 | 19.4 | – | CC1(NC(=O)O[C@@H]2CC[C@H](c3cc(NC(=O)Cc4cc(F)cc(F)c4)n[nH]3)C2)CCOC1 (single isomer, unassigned) [Example 121]
9.11 | 74.2 | – | C[C@H](F)[C@H](C)NC(=O)O[C@@H]1CC[C@H](c2cc(NC(=O)Cc3cnn(C)c3)n[nH]2)C1 (single isomer, unassigned) [Example 382, (1R,3S)-3-(3-{[(1-methyl-1H-pyrazol-4-yl)acetyl]amino}-1H-pyrazol-5-yl)cyclopentyl [(2S*,3S*)-3-fluorobutan-2-yl]carbamate]
9.49 | 30.3 | – | COc1ccc(CC(=O)Nc2cc([C@H]3CC[C@@H](OC(=O)NC4(C)CCOC4)C3)[nH]n2)cc1 (single isomer, unassigned) [Example 484]
9.82 | 8.9 | – | COc1cc(CC(=O)Nc2cc([C@H]3CC[C@@H](OC(=O)NC(C)CC(F)(F)F)C3)[nH]n2)ccn1 (single isomer, unassigned) [Example 78]
9.60 | 12.9 | – | CC(CC(F)(F)F)NC(=O)O[C@@H]1CC[C@H](c2cc(NC(=O)Cc3ccno3)n[nH]2)C1 (single isomer, unassigned) [Example 86]
10.15 | 13.8 | – | CCC1(C)CCN1C(=O)O[C@@H]1CC[C@H](c2cc(NC(=O)Cc3cc(C)no3)n[nH]2)C1 (single isomer, unassigned) [Example 603]
9.89 | 1.63 | – | COc1cc(CC(=O)Nc2cc([C@H]3CC[C@@H](OC(=O)N4C[C@@H](C#N)[C@@H]4C)C3)[nH]n2)ccn1 (single isomer, unassigned) [Example 155]
9.41 | 19.7 | – | COc1cc(CC(=O)Nc2cc([C@H]3CC[C@@H](OC(=O)NC(C)CC(F)(F)F)C3)[nH]n2)ccn1 (single isomer, unassigned) [Example 77]
9.44 | 16.3 | – | COc1cnc(CC(=O)Nc2cc([C@H]3CC[C@@H](OC(=O)NC(C)CC(F)(F)F)C3)[nH]n2)cn1 (single isomer, unassigned) [Example 68]
9.66 | 12.7 | – | COc1ccc(CC(=O)Nc2cc([C@H]3CC[C@@H](OC(=O)NC4(C)CCOC4)C3)[nH]n2)cn1 (single isomer, unassigned) [Example 122]
9.60 | 42.8 | – | CC(C)NC(=O)O[C@@H]1CC[C@H](c2cc(NC(=O)C3COc4ccccc43)n[nH]2)C1 (single isomer, unassigned) [Example 56]
9.66 | – | 7.90 | CC[C@H](C)NC(=O)O[C@@H]1CC[C@H](c2cc(NC(=O)Cc3ccc(C)nc3)n[nH]2)C1 [Example 35]
9.42 | – | 7.25 | Cc1cc(CC(=O)Nc2cc([C@H]3CC[C@@H](OC(=O)NC(C)(C)C)C3)[nH]n2)no1 [Example 295, (1R,3S)-3-(3-{[(5-methyl-1,2-oxazol-3-yl)acetyl]amino}-1H-pyrazol-5-yl)cyclopentyl tert-butylcarbamate]
9.70 | – | 7.50 | CC1(NC(=O)O[C@@H]2CC[C@H](c3cc(NC(=O)Cc4cc(Cl)ccn4)n[nH]3)C2)CC1 [Example 129]
9.09 | – | 7.23 | CC[C@H](C)NC(=O)O[C@@H]1CC[C@H](c2cc(NC(=O)Cc3sc(C)nc3C)n[nH]2)C1 [Example 352, (1R,3S)-3-(3-{[(2,4-dimethyl-1,3-thiazol-5-yl)acetyl]amino}-1H-pyrazol-5-yl)cyclopentyl (2S)-butan-2-ylcarbamate]
9.57 | – | 8.14 | C[C@H]1[C@H](O)CN1C(=O)O[C@@H]1CC[C@H](c2cc(NC(=O)Cc3cc(F)cc(F)c3)n[nH]2)C1 [Example 617, (1R,3S)-3-(3-{[(3,5-difluorophenyl)acetyl]amino}-1H-pyrazol-5-yl)cyclopentyl (2S,3R)-3-hydroxy-2-methylazetidine-1-carboxylate]
8.99 | – | 8.02 | CCCNC(=O)O[C@H]1CC[C@@H](c2cc(NC(=O)Cc3ccc(OC)cn3)n[nH]2)C1 [Example 186, (1S,3R)-3-(3-{[(5-methoxypyridin-2-yl)acetyl]amino}-1H-pyrazol-5-yl)cyclopentyl propylcarbamate]
9.12 | – | 8.27 | CCN(C)C(=O)O[C@H]1CC[C@@H](c2cc(NC(=O)Cc3ccc(OC)nc3)n[nH]2)C1 [Example 243, (1S,3R)-3-(3-{[(6-methoxypyridin-3-yl)acetyl]amino}-1H-pyrazol-5-yl)cyclopentyl ethyl(methyl)carbamate]
9.70 | – | 7.27 | CC[C@H](C)NC(=O)O[C@@H]1CC[C@H](c2cc(NC(=O)c3ccnn3CCOC)n[nH]2)C1 [Example 51]
9.48 | – | 8.06 | C[C@H]1COCCN1C(=O)O[C@@H]1CC[C@H](c2cc(NC(=O)Cc3cc(F)cc(F)c3)n[nH]2)C1 [Example 644, (1R,3S)-3-(3-{[(3,5-difluorophenyl)acetyl]amino}-1H-pyrazol-5-yl)cyclopentyl (3S)-3-methylmorpholine-4-carboxylate]
9.66 | – | 8.09 | Cn1ccc(CC(=O)Nc2cc([C@H]3CC[C@@H](OC(=O)N4CCCC4(C)C)C3)[nH]n2)n1 [Example 136]
